Earlier results in patent US10227406B2, “Cannabinoid receptor-1 (CB1) monoclonal antibodies” (AMGEN INC., priority 2013, dated 2019).

Key:
[1] = cited from earlier work; for food intake, body weight gain and metabolic parameters: mice; for brain penetration: mouse, in vivo
[2] = multiple clinical trials; cited from earlier work
[3] = in vivo; cited from earlier work

Row | Structure (SMILES) | food intake, body weight gain and metabolic parameters [1] | brain penetration [1] | adverse CNS effects [2] | body weight and metabolic parameters [3]
1 | Cc1c(C(=O)NN2CCS(=O)(=O)CC2)nn(-c2ccc(Cl)cc2Cl)c1-c1ccc(C#CCCC#N)cc1 [AM6545] | reduce food intake and body weight gain and improve multiple metabolic parameters | poor brain penetration | – | –
2 | CC(C)[C@H](N=C(NS(=O)(=O)c1ccc(Cl)cc1)N1C[C@H](c2ccccc2)C(c2ccc(Cl)cc2)=N1)C(N)=O [JD5037] | reduce food intake and body weight gain and improve multiple metabolic parameters | poor brain penetration | – | –
3 | Cc1c(C(=O)NN2CCCCC2)nn(-c2ccc(Cl)cc2Cl)c1-c1ccc(Cl)cc1 [rimonabant] | – | – | increased the incidence of anxiety, depression, and suicidal ideation | reduce body weight and improve metabolic parameters
4 | C[C@H](NC(=O)C(C)(C)Oc1ccc(C(F)(F)F)cn1)[C@@H](Cc1ccc(Cl)cc1)c1cccc(C#N)c1 [taranabant] | – | – | – | reduce body weight and improve metabolic parameters
